Measured values published in patent publication US20250179103A1, “6-OXODECAHYDROPYRROLO[1,2-A][1,5]DIAZOCINE AND 6-OXODECAHYDRO-4H-PYRROLO[2,1-D][1,5]THIAZOCINE DERIVATIVES AS STAT3 AND STAT6 MODULATORS FOR THE TREATMENT OF CANCER AND INFLAMMATORY CONDITIONS” (Recludix Pharma, Inc., priority 2022, published 2025).

Key:
[1] = biological target: T1, Recombinant STAT3 protein (STAT3(G127-I722)) (Homo sapiens, UniProt P40763); experiment: STAT3 Fluorescence Polarization (FP) Assay; type: binding; settings: STAT3(G127-I722) 25 nM, probe 5-FAM-GpYLPQTV-NH2 2 nM, 45-minute incubation
T1 construct: Recombinant STAT3 protein (STAT3(G127-I722))
How it was run: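 Fluorescence polarization after a 45-min room-temperature incubation measured compound displacement of a 2 nM fluorescein-labelled phosphotyrosine peptide (5-FAM-GpYLPQTV-NH2) from 25 nM recombinant STAT3(G127-I722). Buffer was 10 mM HEPES pH 7.4 with 1% DMSO final. IC50s were fitted by nonlinear regression of mP against log concentration.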

[2] = biological target: T2, Recombinant STAT6 protein (STAT6(W123-T658)) (Homo sapiens, UniProt P42226); experiment: STAT6 Fluorescence Polarization (FP) Assay; type: binding; settings: STAT6(W123-T658) 250 nM, probe 5-FAM-ApYKPFQDLI-NH2 2 nM, 45-minute incubation
T2 construct: Recombinant STAT6 protein (STAT6(W123-T658))
T2 sequence (P42226 123-658): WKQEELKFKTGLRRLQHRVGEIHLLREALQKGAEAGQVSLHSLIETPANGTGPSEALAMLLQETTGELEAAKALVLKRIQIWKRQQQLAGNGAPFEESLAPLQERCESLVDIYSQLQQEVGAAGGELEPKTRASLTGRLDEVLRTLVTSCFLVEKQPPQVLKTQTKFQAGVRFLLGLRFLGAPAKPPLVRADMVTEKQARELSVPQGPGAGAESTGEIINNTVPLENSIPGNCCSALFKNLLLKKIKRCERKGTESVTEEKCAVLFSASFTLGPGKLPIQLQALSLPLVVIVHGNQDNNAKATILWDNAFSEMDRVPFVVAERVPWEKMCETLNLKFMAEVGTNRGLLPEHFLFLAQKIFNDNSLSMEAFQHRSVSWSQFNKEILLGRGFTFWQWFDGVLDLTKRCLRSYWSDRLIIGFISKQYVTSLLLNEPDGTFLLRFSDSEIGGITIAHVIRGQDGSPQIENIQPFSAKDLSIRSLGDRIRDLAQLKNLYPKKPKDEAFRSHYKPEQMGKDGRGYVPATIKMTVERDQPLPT
How it was run: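 Displacement of a fluorescent phosphotyrosine peptide (5-FAM-ApYKPFQDLI-NH2, 2 nM) from STAT6(W123-T658) (250 nM), 1% DMSO, pH 7.4 HEPES buffer. After 45 min at room temperature, polarization (mP) was plotted versus log compound concentration and fitted by nonlinear regression to give IC50.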

T1 sequence (P40763 127-722): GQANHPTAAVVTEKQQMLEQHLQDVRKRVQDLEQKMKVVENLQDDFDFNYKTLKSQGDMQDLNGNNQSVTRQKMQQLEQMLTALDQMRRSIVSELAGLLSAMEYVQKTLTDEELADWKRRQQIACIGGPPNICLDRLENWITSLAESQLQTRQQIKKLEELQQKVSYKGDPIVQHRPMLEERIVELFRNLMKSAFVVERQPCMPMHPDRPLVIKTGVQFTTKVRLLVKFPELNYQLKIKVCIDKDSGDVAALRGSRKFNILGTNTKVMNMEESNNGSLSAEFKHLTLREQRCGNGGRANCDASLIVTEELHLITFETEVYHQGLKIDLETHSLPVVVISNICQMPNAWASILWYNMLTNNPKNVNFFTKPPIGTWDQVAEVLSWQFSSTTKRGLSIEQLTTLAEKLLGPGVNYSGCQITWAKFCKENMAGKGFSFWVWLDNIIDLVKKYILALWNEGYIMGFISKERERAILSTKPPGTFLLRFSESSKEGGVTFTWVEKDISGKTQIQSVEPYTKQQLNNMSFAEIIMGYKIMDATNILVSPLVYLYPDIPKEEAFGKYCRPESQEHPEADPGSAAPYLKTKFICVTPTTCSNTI

Cc1ccc2[nH]nc(C(=O)N3CC[C@H]4CC[C@@H](C(=O)N5CC(c6cc[nH]c(=O)c6)CC56CC6)N4C(=O)[C@@H](NC(=O)c4ccc5ccc(C(F)(F)P(=O)(O)O)cc5c4)C3)c2c1 (stereo partly drawn) [Compound 367, (difluoro(7-(((5S,8S, 10aR)-3-(5-methyl-1H-indazole-3-carbonyl)-6-oxo-8-(6-(2-oxo-1,2-dihydropyridin-4-yl)-4-azaspiro[2.4]heptane-4-carbonyl)decahydropyrrolo[1,2-a][1,5]diazocin-5-yl)carbamoyl)naphthalen-2-yl)methyl) phosphonic acid] gave an IC50 [1] of 1000 to 10000 nM and an IC50 [2] of at most 300 nM.

With Cc1ccc2onc(C(=O)N3CC[C@H]4CC[C@@H](C(=O)N5CCN(S(C)(=O)=O)CC5)N4C(=O)[C@@H](NC(=O)c4ccc5ccc(C(F)P(=O)(O)O)cc5c4)C3)c2c1 (stereo partly drawn) [Compound 368, (fluoro(7-(((5S,8S,10aR)-3-(5-methylbenzo[d]isoxazole-3-carbonyl)-8-(4-(methylsulfonyl)piperazine-1-carbonyl)-6-oxodecahydropyrrolo [1,2-a][1,5]diazocin-5-yl)carbamoyl)naphthalen-2-yl)methyl)phosphonic acid] the IC50 [1] was over 10000 nM and the IC50 [2] was at most 300 nM.

In the case of Cc1ccc2onc(C(=O)N3CC[C@H]4CC[C@@H](C(=O)N5CCN(c6nsc7ccccc67)CC5)N4C(=O)[C@@H](NC(=O)c4ccc5ccc(C(F)P(=O)(O)O)cc5c4)C3)c2c1 (stereo partly drawn) [Compound 369, ((7-(((5S,8S,10aR)-8-(4-(benzo[d]isothiazol-3-yl)piperazine-1-carbonyl)-3-(5-methylbenzo[d]isoxazole-3-carbonyl)-6-oxodecahydropyrrolo [1,2-a][1,5]diazocin-5-yl)carbamoyl)naphthalen-2-yl)fluoromethyl) phosphonic acid], the IC50 [1] is reported as 1000 to 10000 nM and the IC50 [2] is reported as at most 300 nM.

For Cc1ccc2onc(C(=O)N3CC[C@H]4CC[C@@H](C(=O)N5CCOC[C@@H]5c5ccccc5)N4C(=O)[C@@H](NC(=O)c4ccc5ccc(C(F)P(=O)(O)O)cc5c4)C3)c2c1 (stereo partly drawn) [Compound 370, (fluoro(7-(((5S,8S, 10aR)-3-(5-methylbenzo[d]isoxazole-3-carbonyl)-6-oxo-((S)-3-phenylmorpholine-4-carbonyl)decahydro-pyrrolo[1,2-a] [1,5]diazocin-5-yl)carbamoyl)naphthalen-2-yl)methyl)phosphonic acid], the IC50 [1] was over 10000 nM and the IC50 [2] was at most 300 nM.

Cc1ccc2onc(C(=O)N3CC[C@H]4CC[C@@H](C(=O)N5CCOC[C@H]5c5ccccc5)N4C(=O)[C@@H](NC(=O)c4ccc5ccc(C(F)P(=O)(O)O)cc5c4)C3)c2c1 (stereo partly drawn) [Compound 371, (fluoro(7-(((5S,8S,10aR)-3-(5-methylbenzo[d]isoxazole-3-carbonyl)-6-oxo-8-((R)-3-phenylmorpholine-4-carbonyl)decahydro-pyrrolo[1,2-a][1,5]diazocin-5-yl)carbamoyl)naphthalen-2-yl)methyl)phosphonic acid] gave an IC50 [1] of over 10000 nM and an IC50 [2] of at most 300 nM.

Cc1ccc2onc(C(=O)N3CC[C@H]4CC[C@@H](C(=O)N5C[C@@H]6C[C@H]5CO6)N4C(=O)[C@@H](NC(=O)c4ccc5ccc(C(F)P(=O)(O)O)cc5c4)C3)c2c1 (stereo partly drawn) [Compound 372, ((7-(((5S,8S,10aR)-8-((1S,4S)-2-oxa-5-azabicyclo[2.2.1]heptane-5-carbonyl)-3-(5-methylbenzo[d]isoxazole-3-carbonyl)-6-oxodecahydropyrrolo [1,2-a][1,5]diazocin-5-yl)carbamoyl)naphthalen-2-yl)fluoromethyl)phosphonic acid] showed an IC50 [1] of over 10000 nM and an IC50 [2] of at most 300 nM.

With Cc1ccc2onc(C(=O)N3CC[C@H]4CC[C@@H](C(=O)N5CCOC(Cc6ccccc6)C5)N4C(=O)[C@@H](NC(=O)c4ccc5ccc(C(F)P(=O)(O)O)cc5c4)C3)c2c1 (stereo partly drawn) [Compound 373, ((7-(((5S,8S,10aR)-8-(2-benzylmorpholine-4-carbonyl)-3-(5-methylbenzo[d]isoxazole-3-carbonyl)-6-oxodecahydropyrrolo [1,2-a][1,5]diazocin-5-yl)carbamoyl)naphthalen-2-yl)fluoromethyl) phosphonic acid] the IC50 [1] was over 10000 nM and the IC50 [2] was at most 300 nM.

Compound CCc1ccc2onc(C(=O)N3CC[C@H]4CC[C@@H](C(=O)N5CCOCC56CC6)N4C(=O)[C@@H](NC(=O)c4ccc5ccc(C(F)P(=O)(O)O)cc5c4)C3)c2c1 (stereo partly drawn) [Compound 374, ((7-(((5S,8S,10aR)-3-(5-ethylbenzo[d]isoxazole-3-carbonyl)-6-oxo-8-(7-oxa-4-azaspiro[2.5]octane-4-carbonyl)decahydropyrrolo[1,2-a][1,5]diazocin-5-yl)carbamoyl)naphthalen-2-yl)fluoromethyl) phosphonic acid] has an IC50 [1] of over 10000 nM and an IC50 [2] of at most 300 nM.

Cc1ccc2onc(C(=O)N3CC[C@H]4CC[C@@H](C(=O)N5CCOCC5)N4C(=O)[C@@H](NC(=O)c4ccc5ncc(C(F)P(=O)(O)O)cc5c4)C3)c2c1 (stereo partly drawn) [Compound 376, (fluoro(6-(((5S,8S, 10aR)-3-(5-methylbenzo[d]isoxazole-3-carbonyl)-8-(morpholine-4-carbonyl)-6-oxodecahydropyrrolo [1,2-a][1,5]diazocin-5-yl)carbamoyl)quinolin-3-yl)methyl)phosphonic acid] gave an IC50 [1] of over 10000 nM and an IC50 [2] of 300 to 3000 nM.

In the case of Cc1ccc2onc(C(=O)N3CC[C@H]4CC[C@@H](C(=O)N5CC6CCC(C5)O6)N4C(=O)[C@@H](NC(=O)c4ccc5ccc([C@H](F)P(=O)(O)O)cc5c4)C3)c2c1 [Compound 377, ((1R)-(7-(((5S,8S,10aR)-8-(8-oxa-3-azabicyclo[3.2.1]octane-3-carbonyl)-3-(5-methylbenzo[d]isoxazole-3-carbonyl)-6-oxodecahydropyrrolo [1,2-a][1,5]diazocin-5-yl)carbamoyl)naphthalen-2-yl)fluoromethyl)phosphonic acid], the IC50 [1] is reported as over 10000 nM and the IC50 [2] is reported as at most 300 nM.

Cc1ccc2onc(C(=O)N3CC[C@H]4CC[C@@H](C(=O)N5CCOCC5)N4C(=O)[C@@H](NC(=O)c4cc(C#N)c5ccc(CP(=O)(O)O)cc5c4)C3)c2c1 [Compound 378, ((5-cyano-7-(((5S,8S, 10aR)-3-(5-methylbenzo[d]isoxazole-3-carbonyl)-8-(morpholine-4-carbonyl)-6-oxodecahydropyrrolo [1,2-a][1,5]diazocin-5-yl)carbamoyl)naphthalen-2-yl)methyl) phosphonic acid] was tested, and the IC50 [1] was over 10000 nM and the IC50 [2] was 300 to 3000 nM.

Cc1ccc2onc(C(=O)N3CC[C@H]4CC[C@@H](C(=O)N5CCOCC5)N4C(=O)[C@@H](NC(=O)c4ccc5c(F)cc(CP(=O)(O)O)cc5c4)C3)c2c1 [Compound 379, ((4-fluoro-7-(((5S,8S, 10aR)-3-(5-methylbenzo[d]isoxazole-3-carbonyl)-8-(morpholine-4-carbonyl)-6-oxodecahydropyrrolo [1,2-a][1,5]diazocin-5-yl)carbamoyl)naphthalen-2-yl)methyl)phosphonic acid] showed an IC50 [1] of over 10000 nM and an IC50 [2] of 300 to 3000 nM.

In the case of Cc1ccc2onc(C(=O)N3CC[C@H]4CC[C@@H](C(=O)N5C[C@@H](c6ccn(C)c(=O)c6)CC56CC6)N4C(=O)[C@@H](NC(=O)c4ccc5ccc([C@@H](F)P(=O)(O)O)cc5c4)C3)c2c1 [Compound 380, ((S)-fluoro(7-(((5S,8S, 10aR)-8-((R)-6-(1-methyl-2-oxo-1,2-dihydropyridin-4-yl)-4-azaspiro[2.4]heptane-4-carbonyl)-3-(5-methylbenzo[d]isoxazole-3-carbonyl)-6-oxodecahydropyrrolo [1,2-a][1,5]diazocin-5-yl)carbamoyl)naphthalen-2-yl)methyl)phosphonic acid], the IC50 [1] is reported as over 10000 nM and the IC50 [2] is reported as at most 300 nM.

Work on Cc1ccc2onc(C(=O)N3CC[C@H]4CC[C@@H](C(=O)N5C[C@H](c6cc[nH]c(=O)c6)CC56CC6)N4C(=O)[C@@H](NC(=O)c4ccc5ccc(C(F)(F)P(=O)(O)O)cc5c4)C3)c2c1 [Compound 381, (difluoro(7-(((5S,8S, 10aR)-3-(5-methylbenzo[d]isoxazole-3-carbonyl)-6-oxo-8-((S)-6-(2-oxo-1,2-dihydropyridin-4-yl)-4-azaspiro[2.4]heptane-4-carbonyl)decahydropyrrolo [1,2-a][1,5]diazocin-5-yl)carbamoyl)naphthalen-2-yl)methyl)phosphonic acid] yielded an IC50 [1] of 1000 to 10000 nM and an IC50 [2] of at most 300 nM.

Cc1ccc2onc(C(=O)N3CC[C@H]4CC[C@@H](C(=O)N5C[C@H](c6ccn(C)c(=O)c6)CC56CC6)N4C(=O)[C@@H](NC(=O)c4ccc5ccc(C(F)(F)P(=O)(O)O)cc5c4)C3)c2c1 [Compound 382, (difluoro(7-(((5S,8S, 10aR)-8-((S)-6-(1-methyl-2-oxo-1,2-dihydropyridin-4-yl)-4-azaspiro[2.4]heptane-4-carbonyl)-3-(5-methylbenzo[d]isoxazole-3-carbonyl)-6-oxodecahydropyrrolo [1,2-a][1,5]diazocin-5-yl)carbamoyl)naphthalen-2-yl)methyl)phosphonic acid] was tested, and the IC50 [1] was 1000 to 10000 nM and the IC50 [2] was at most 300 nM.
